Measurements published in PubChem BioAssay AID977606 (Broad Institute, 2014).
Active and inactive are the calls of the source. No rule for the calls is given here.

Each molecule was assayed on INS-1E Gaussia luciferase insulin secretion, no glucose, luminescence (assay: insulin secretion activators without glucose, dose response, counter-screen for glucose-dependent insulin secretion activators, cell-based, INS-1E, Gaussia luciferase, luminescence, cherry-pick (AID 977606)).

| Structure (SMILES) | AC40 |
| --- | --- |
| CCCCCCN1C[C@H](n2cc(C3CC3)nn2)[C@@H](O)C[C@@H]1c1ccc(C)cc1 | 5.22 µM |
| COc1ccc(-c2ccc(C3[C@@H]4CN(Cc5cccc(OC)c5)C[C@H]3N4)cc2)cc1 (some centres undefined) | 6.42 µM |
| Clc1ccc(-c2ccnc(Oc3cc(Cl)ccc3Cl)n2)cc1 | 6.7 µM |
| Fc1ccc(-c2ccc(C3[C@@H]4CN(Cc5cccc(F)c5)C[C@H]3N4)cc2)cc1 (some centres undefined) | 5.18 µM |
| COc1cccc(-c2sc3ccccc3c2-c2ccc(OCCN(C)C)cc2)c1 | 2.75 µM |
| Fc1ccccc1-c1ccc(C2[C@@H]3CN(Cc4ccccc4)C[C@H]2N3)cc1 (some centres undefined) | 7.19 µM |
| CC1(C(=O)NS(=O)(=O)c2ccc(Cl)s2)CCN1C(=O)C1(c2ccccc2)CCCC1 (centres undefined) | 9.9 µM |
| CCCCCc1cc(=O)oc2c(C(CCN3CCCC(C)C3)c3ccc(OC)cc3)c(OC)cc(OC)c12 (centres undefined) | 8.58 µM |
| CC1(Cc2cc(Cl)ccc2C(F)(F)F)C(=O)Nc2cc(C(F)(F)F)ccc21 (centres undefined) | 12.4 µM |
| Cc1cc(C)nc(Nc2n[nH]c(COc3ccc4ccccc4c3)n2)n1 | 6.18 µM |
| COc1ccc(C(=O)c2sc(Nc3ccccc3)nc2N)cc1OC | 26.5 µM |
| COc1ccc(Br)cc1C(=O)Nc1cc(C)cc(C)c1 | 6.69 µM |
| COc1ccc(-c2ccc(-c3noc(-c4ccco4)n3)c(OC)n2)cc1 | 5.41 µM |
| CCN=C1NC(c2ccc(C(F)(F)F)cc2)C(C(=O)OC)=C(C)N1Cc1cccc(C(F)(F)F)c1 (centres undefined) | 3.88 µM |
| Cc1ccc(C(=O)Oc2ccc(-c3nccc(-c4ccccn4)n3)cc2)cc1 | 5.1 µM |
| COC(=O)c1ccc2c(=O)[nH]c(CSc3nc(-c4ccc(F)cc4)cs3)nc2c1 | 4.39 µM |
| OC[C@@H]1[C@@H](c2ccc(C#CC3CCCC3)cc2)[C@H]2CN(CCC(F)(F)F)CCCCN12 | 6.32 µM |
| COc1ccccc1CCn1cnc(-c2cccc(F)c2)c1CC(C)C | 8.26 µM |
| Fc1cccc(CN2C[C@@H]3N[C@H](C2)C3c2ccc(/C=C/c3ccccc3)cc2)c1 (some centres undefined) | 6.41 µM |
| O=C(Nc1ccc(F)cc1)Nc1cc(OCC(F)(F)F)cc(OCC(F)(F)F)c1 | 5.78 µM |
| COC(=O)C1=C(C)N(Cc2cccc(C(F)(F)F)c2)C(=NCc2ccc(C(F)(F)F)cc2)NC1c1ccccc1 (centres undefined) | 8.93 µM |
| Cc1cc(C)cc(NC(=O)Cc2ccc(-n3cccc3)cc2)c1 | 6.9 µM |
| O=C(NCCC1=CCCCC1)C(=O)NCC(c1ccco1)N1CCN(c2ccccc2)CC1 (centres undefined) | 3.54 µM |
| CCOc1nc(-c2ccccc2)c2cc(Br)ccc2n1 | 21.9 µM |
| Cc1ccccc1CSCc1ccc(C(=O)NCCCN2CCOCC2)o1 | 26.4 µM |
| Cc1ccc(NC(=O)c2ccc(COc3ccc4c(c3)CCC4)cc2)c(C)c1 | 0.841 µM |
| OC(c1ccccc1)(c1ccccc1)C1CCN(CCCOc2ccc(-c3ccsc3)cc2)CC1 | 9.65 µM |

| Structure (SMILES) | AC40 |
| --- | --- |
| Nc1nc(N)c2cc(Sc3ccc(Cl)cc3)ccc2n1 | 9.55 µM |
| CCn1c(O)c(/C=N/N=C/c2ccc(OC)cc2)c2cc(C3=NNC(=O)CC3)ccc21 | 4.2 µM |
| Cc1cccc(C(C)C)c1NC(=O)COC(=O)c1cccc(S(=O)(=O)N2CCc3ccccc3C2)c1 | 6.65 µM |
| O=C(Cn1nnc(-c2ccccc2)n1)N=Nc1c(O)[nH]c2ccccc12 | 8.24 µM |
| FC(F)(F)c1cc(CCN2CCNC[C@@H]2CC2CCCCC2)cc(C(F)(F)F)c1 | 4.05 µM |
| CCOC(=O)Nc1cccc(OCC(=O)Nc2ccc3c(c2)CCC3)c1 | 8.25 µM |
| O=C(OCC12CC3CC(CC(C3)C1)C2)c1ccc(NCc2cc(O)ccc2O)cc1 | 9.2 µM |
| CC(C)COc1ccc(Br)cc1CNC(C)(C)C | > 35 µM (inactive) |
| CN(C)CCNc1ncnc2oc(-c3ccccc3)c(-c3ccccc3)c12 | 26.4 µM |
| O=C(Nc1cccc(Cl)c1)Nc1nnc(CSCCOc2ccc(Cl)cc2)s1 | 3.41 µM |
| Cc1ccc(/C=N/NC(=O)COc2ccccc2-c2ccccc2)cc1 | 4.99 µM |
| O=C(c1cccs1)c1coc2ccc(O)c(CN3CCOCC3)c12 | > 35 µM (inactive) |
| COc1ccc(Br)cc1C(=O)Nc1cccc(C)c1 | 9.88 µM |
| Cc1ccc(Oc2ncc(-c3ccc(Cl)cc3)cn2)cc1 | 4.48 µM |
| CCOC(=O)CN1C(=O)[C@]2(OCCC=C[C@H]2C)c2ccccc21 | 13 µM |
| O=C(N/N=C/c1ccc(Cl)cc1Cl)Nc1ccccc1 | 7.4 µM |
| Cc1ccc(S(=O)(=O)C=CS(=O)(=O)c2ccc(C)cc2)cc1 | 0.228 µM |
| CCc1ccc(OCC(=O)NC(=S)Nc2ccc(F)cc2)c(Br)c1 | 6.76 µM |
| Cc1ccc(C)c(OCC(=O)N/N=C/c2c(C)nn(-c3ccccc3)c2Cl)c1C | 1.63 µM |
| CC(C)n1nc(C(=O)Nc2ccccc2N2CCOCC2)c2ccccc2c1=O | 6.12 µM |
| CC(C)(C(=O)N1CCC1(C)C(=O)NS(=O)(=O)c1cccc(Cl)c1)c1ccccc1 (centres undefined) | 3.65 µM |
| CC(C)(C)c1ccccc1OCC(O)CN1CCN(c2ccccn2)CC1 (centres undefined) | 13 µM |
| CCCCc1c(-c2ccccc2F)ncn1CCc1ccccc1OC | 9.38 µM |
| Fc1cccc(CN2C[C@@H]3N[C@H](C2)[C@@H]3c2ccc(-c3cccc(F)c3)cc2)c1 | 4.89 µM |
| Cc1ccc(NC(=O)CNC(=O)c2sc3ccccc3c2Cl)nc1 | 10.3 µM |
| CN(C)CCNC(=O)c1cc2c(s1)-c1ccc(Cl)cc1SC2 | 4.87 µM |
| COC(=O)Cn1cc(C#N)c2ccccc21 | > 35 µM (inactive) |
